Assay results from patent EP0492902A1, “Substituted pyridine derivatives for use in the treatment of glaucoma” (MERCK SHARP & DOHME LTD., priority 1990, dated 1992).
Structures can show the parent of a compound that is named as a salt.

Experiment: Change in intraocular pressure (IOP) after administration of compound
Assay type: in vivo

Structure (SMILES)	Change in IOP (Maximum mmHg change in intraocular pressure) (Concentration 0.05%) [mmHg]	Change in IOP (Maximum mmHg change in intraocular pressure) (Concentration 0.5%) [mmHg]
CCOc1cccc(C2CN3CCC2CC3)n1 (stereo not shown) [Description A, 3-[2-(6-Ethoxypyridin)yl]-1-azabicyclo[2.2.2]octane Hydrogen Oxalate]	-3.0	–
COc1cccc(C2CN3CCC2C3)n1 (stereo not drawn) [Description B, Endo-3-[2-(6-methoxypyridin)yl]-1-azabicyclo[2.2.1]heptane Hydrogen Oxalate]	-4.5	–
COc1cccc(C2CN3CCC2CC3)n1 (stereo not shown) [Description C, 3-[2-6-Methoxypyridin)yl]-1-azabicyclo[2.2.2]octane Dihydrochloride]	-3.0	–
Clc1cccc(C2CN3CCC2CC3)n1 (stereo not shown) [Description D, 3-[2-(6-Chloropyridin)yl]-1-azabicyclo[2.2.2]octane Hydrogen Oxalate]	–	-3.0
